Assay results: patent US20120128580A1, “PRESELECTION OF SUBJECTS FOR THERAPEUTIC TREATMENT WITH ELESCLOMOL BASED ON HYPOXIC STATUS” (SYNTA PHARMACEUTICALS CORP., priority 2010, published 2012)

Key:
[1] = system: Stage 1V Metastatic melanoma; experiment: Phase I/II study, elesclomol in combination with paclitaxel; type: in vivo, human; details: i.v. weekly for three weeks of 28 day cycle
Experimental: For example, a Phase I/II study was performed to test elesclomol in combination with paclitaxel in patients with Stage 1V Metastatic melanoma. Subjects were dosed intravenously with 80 mg/m^2 of paclitaxel either with or without 213 mg/m^2 of elesclomol once per week for the first three weeks, followed by one week off (i.e., a 28 day cycle with dosing on days 1, 8, and 14) with the 28 day dosing cycle repeated until tumor progression, likely resulting in complete clearance of elesclomol between doses.

[2] = system: Stave IV Metastatic melanoma; experiment: Phase III study, elesclomol in combination with paclitaxel versus paclitaxel alone; type: in vivo, human; details: for Median (months) Overall Survival / Median (months) PFS: Phase III; for Median Progression Free Survival: Phase III metastatic melanoma, chemotherapy-naive
Experimental: Further, a Phase III study was performed to test elesclomol in combination with paclitaxel versus paclitaxel alone in chemotherapy-naïve subjects with Stave IV Metastatic melanoma. Subjects with metastatic melanoma were randomized with a ratio of 1:1 to either the treatment arm (elesclomol 213 mg/m^2 in combination with paclitaxel 80 mg/m^2) or the control arm (paclitaxel 80 mg/m^2 alone) once per week for the first three weeks, followed by one week off (i.e., a 28 day cycle with dosing on days 1, 8, and 14) with the 28 day dosing cycle repeated until tumor progression, likely resulting in complete clearance of elesclomol between doses. The population enrolled into the study was to have baseline LDH levels limited to 2 times upper limit of normal (ULN) values.

In the case of `CC(=O)O[C@H]1C(=O)[C@@]2(C)[C@H]([C@H](OC(=O)c3ccccc3)[C@]3(O)C[C@H](OC(=O)[C@H](O)[C@@H](NC(=O)c4ccccc4)c4ccccc4)C(C)=C1C3(C)C)[C@]1(OC(C)=O)CO[C@@H]1C[C@@H]2O` [P alone, paclitaxel], the “Median Progression Free Survival” value ([1]; High LDH) is reported as 1.6 (95% CI: 1.0-3.0) months, the “Median Progression Free Survival” value ([1]; High LDH, listed as paclitaxel) is reported as 1.6 months and the “Median Progression Free Survival” value ([1]; Low LDH) is reported as 3.5 (95% CI: 1.6-7.3) months. For the same compound, the “Median Progression Free Survival” value ([1]; Low LDH, listed as paclitaxel) was 3.5 months, the “Median (months) Overall Survival” value ([2]; High LDH (>1 × ULN)) was 8.1 months and the “Median (months) PFS” value ([2]; High LDH (>1 × ULN)) was 1.9 months. For the same compound, the “Median Progression Free Survival” value ([2]; High LDH) was 1.9 (95% CI: 1.8-2.6) months, the “Median (months) Overall Survival” value ([2]; ITT Population) was 11.7 months and the “Median (months) PFS” value ([2]; ITT Population) was 1.9 months. For the same compound, the “Median (months) PFS” value ([2]; Low LDH (≦0.8 × ULN)) was 2.1 months, the “Median (months) Overall Survival” value ([2]; Low LDH (≦0.8 × ULN), listed as Paclitaxel alone) was “Not Ach” and the “Median (months) Overall Survival” value ([2]; Low LDH (≦0.8 × ULN), listed as paclitaxel alone) was “not achieved”. The “Median Progression Free Survival” value ([2]; Low LDH) was 2.1 (95% CI: 1.9-3.6) months, the “Median (months) Overall Survival” value ([2]; Normal LDH (≦1 × ULN)) was 14.5 months and the “Median (months) PFS” value ([2]; Normal LDH (≦1 × ULN)) was 2.1 months.
